Measurements: ChEMBL document CHEMBL5137107, “Optimization of hERG and Pharmacokinetic Properties for Basic Dihydro-8H-purin-8-one Inhibitors of DNA-PK” (ACS Med Chem Lett, 2022)
Converted amounts (≈) assume the structure as drawn.

What was measured:
[1] = 1-Octanol/aqueous buffer partition coefficient, logD of the compound at pH 7.4 by shake flask technique based UPLC analysis; type: physicochemical
[2] = Apparent permeability of compound across apical to basal membrane in human Caco-2 by ABBA assay; type: ADME, cell-based
[3] = Solubility of the compound in FaSSIF at pH 6.5; type: physicochemical
[4] = Oral bioavailability in Han Wistar rat at 5 mg/kg; type: ADME, organism-based; conditions: in vivo
[5] = Volume of distribution at steady state in Han Wistar rat at 5 mg/kg, po or 2 mg/kg, iv; type: ADME, organism-based; conditions: in vivo
[6] = Oral bioavailability in Beagle dog at 2 mg/kg; type: ADME, organism-based, Canis lupus familiaris; conditions: in vivo
[7] = Volume of distribution at steady state in Beagle dog at 2 mg/kg, po or 1 mg/kg, iv; type: ADME, organism-based, Canis lupus familiaris; conditions: in vivo
[8] = Acid dissociation constant, pKa of the compound; type: physicochemical
[9] = Cardiotoxicity in guinea pig assessed as unbound concentration required to increase in QTc level by 10% administered as iv infusion consecutively for 15 mins; type: toxicity, organism-based, Cavia porcellus; conditions: in vivo
[10] = Solubility of the compound; type: physicochemical
[11] = Cardiotoxicity in guinea pig assessed as increase in QTc level by measuring unbound Cmax at 3 to 30 mg/kg administered as iv infusion consecutively for 15 mins; type: toxicity, organism-based, Cavia porcellus; conditions: in vivo, dose 3-30 mg/kg

SMILES | logD [1] | pKa [8] | also measured
Cc1cc2ncccc2cc1Nc1ncc2c(n1)n([C@@H]1CNC[C@H]1F)c(=O)n2C | 1.6 | 7.3 | Papp A→B [2]: 9.4 ×10⁻⁶ cm/s; solubility [3]: 872 µM (≈ 343 µg/mL); bioavailability [4]: 58%; Vdss [5]: 2.1 L/kg; bioavailability [6]: 52%; Vdss [7]: 5.4 L/kg
Cc1cc2ncnn2cc1Nc1ncc2c(n1)n(C1CCN(C)CC1)c(=O)n2C | 0.3 | – | –
Cc1cc2ncccc2cc1Nc1ncc2c(n1)n([C@@H]1CN(C)C[C@H]1F)c(=O)n2C | 2.1 | 6.5 | –
Cc1cc2ncccc2cc1Nc1ncc2c(n1)n(C1CCOCC1)c(=O)n2C | 2.5 | – | –
Cc1cc2nnccc2cc1Nc1ncc2c(n1)n(C1CCOCC1)c(=O)n2C | 2.2 | – | –
Cc1cc2ncccc2cc1Nc1ncc2c(n1)n([C@@H]1CCN(C)C1)c(=O)n2C | 1.2 | 8.7 | –
Cc1cc2ncccc2cc1Nc1ncc2c(n1)n([C@@H]1CN(C)C[C@@H]1F)c(=O)n2C | 2.2 | – | –
Cc1cc2ncccc2cc1Nc1ncc2c(n1)n(C1CCNCC1)c(=O)n2C | 0.5 | – | Papp A→B [2]: 0.7 ×10⁻⁶ cm/s
Cc1cc2ncccc2cc1Nc1ncc2c(n1)n([C@H]1CCN(C)C1)c(=O)n2C | 1.1 | 8.9 | EC10 [11]: 3.9 µM; Papp A→B [2]: 19 ×10⁻⁶ cm/s
COCCN1CC[C@H](n2c(=O)n(C)c3cnc(Nc4cc5cccnc5cc4C)nc32)C1 | 1.7 | – | –

Second part, led by results:

logD [1] | pKa [8] | SMILES | also measured
1.7 | 7.2 | Cc1cc2ncccc2cc1Nc1ncc2c(n1)n([C@@H]1CNC[C@@H]1F)c(=O)n2C | –
2.2 | – | Cc1cc2ncncc2cc1Nc1ncc2c(n1)n(C1CCOCC1)c(=O)n2C | –
1.8 | 8.2 | Cc1cc2ncccc2cc1Nc1ncc2c(n1)n(C1CCN(C)CC1)c(=O)n2C | EC10 [9]: 2.3 µM; Papp A→B [2]: 14 ×10⁻⁶ cm/s; solubility [10]: 178 µM (≈ 71.8 µg/mL)
0.9 | 8.2 | Cc1cc2ncccc2cc1Nc1ncc2c(n1)n([C@H]1CCN(CCO)C1)c(=O)n2C | Papp A→B [2]: 2.6 ×10⁻⁶ cm/s
2.2 | – | Cc1cc2nccnc2cc1Nc1ncc2c(n1)n(C1CCOCC1)c(=O)n2C | –
1.2 | – | Cc1cc2nccnc2cc1Nc1ncc2c(n1)n(C1CCN(C)CC1)c(=O)n2C | –
1.5 | – | Cc1cc2ncccc2cc1Nc1ncc2c(n1)n([C@H]1CCN(C3COC3)C1)c(=O)n2C | –
1.2 | – | Cc1cc2nnccc2cc1Nc1ncc2c(n1)n(C1CCN(C)CC1)c(=O)n2C | –
1.3 | – | Cc1cc2ncnn2cc1Nc1ncc2c(n1)n(C1CCOCC1)c(=O)n2C [AZD-7648] | –
